Patent US6660742B2, “Compositions and methods of the use thereof achiral analogues of CC-1065 and the duocarmycins” (priority 2000, dated 2003)
Like-named read-outs stand apart in the source and are kept apart here.

Legend:
[1] = tested on: L1210 leukemia; conditions: carzelesin 400 μg/kg, adozelesin 100 μg/kg; cited from earlier work
[2] = tested on: K562 human chronic myeloid leukemia cells; experiment: MTT cytotoxicity on K562 cells; assay type: cell-based
[3] = tested on: supercoil pBR322 DNA; experiment: pBR322 strand nicking assay; assay type: biochemical
Description: When a compound is covalently bound to a purine-N3 in the minor groove of DNA, the adduct is thermally unstable. It is readily hydrolyzed to produce a DNA strand (2). Consequently, the formation of adenine-N3 (or guanine-N3) alkylation adducts can be detected by thermal conversion of supercoil pBR322 DNA (Form I) to nicked open […] DNA (Form II) as a result of the formation of single strand breaks. These two different forms of pBR322 DNA can then be separated by agarose gel electrophoresis, and the relative amounts of each form can be determined by densitometry of methylene blue stained gels (39). The supercoil form of pBR322 DNA is more compact than the open circular form, and as a result, moves further down the gel towards the positive electrode.
Solutions of the drugs dissolved in N,N-dimethylacetamide (DMA) were made at 0.10 mM concentrations, and were always stored in the refrigerator.
Tris buffer solution at pH 7.4 at 25° C. and 0.010 M was made from Tris HCl (0.661 g), Tris base (0.097 g) diluted to a 100 mL volume with distilled water. Then EDTA-Na2—2H2O (0.186 g) and KCl (3.72 g) were added to the Tris HCl solution and diluted to 500 mL volume with distilled water. A TBE solution was prepared from Carolina Lot #4020602 Electrophoresis buffer 20 times TBE diluted to a volume of three liters with deionized water. The agarose gel was prepared from agarose low EEO (0.32 g) dissolved in TBE buffer (40 mL) and heated in a microwave oven until dissolved.
The pBR322 DNA (100 μg/100 μL) from Pharmacia Biotech was in a buffer (10 mM Tris-HCl pH 7.5, and 1 mM EDTA). The DNA was prepared from plasmid DNA isolated from E. coli HB101 by the alkaline lysate procedure and was purified by Sepharcryl S-100 chromatography followed by CsCl-ethidium bromide centrifugation.
The alkylation samples were prepared by adding DNA (10 μL), Tris-EDTA KCl buffer (18 μL), and compound (2 μL) at 100 μM concentration to Eppendorf tubes. The samples were incubated at 40° C. for 40 h. The samples were removed then centrifuged for one minute. 10% SDS (sodium dodecylsulfate) (2 μL), 50% glycerol (5 μL), and bromophenol blue (2 μL) were added to the samples. The contents of the tubes were mixed with a Vortex mixer then centrifuged to consolidate the samples. The agarose gel was covered with TBE-buffer in the chamber. The samples were loaded onto the agarose gel and run at 40 V for three hours, or when the band were about three/fourths of the way down the gel.
The gel was removed and stained with methylene blue (45 min). At this time, the stained gel was placed in a water chamber overnight. The intensities of each band i.e. Form I and II were determined using densitometry.

[4] = tested on: human colon adenocarcinoma cell line, LS 174T; experiment: SRB cytotoxicity on LS174T cells; assay type: cell-based
Protocol: Cells were seeded in 96-well microtiter plates at densities of 1000 cells/well. The optimal seeding density was determined to ensure exponential growth in control wells throughout the experimental period and to obtain a linear relationship between absorbance at 492 nm and cell number when analyzed by the sulforhodamine B (SRB) assay (43). 24 hours after seeding the cells were incubated for 1 hour or continuously for 3 days with the drugs (concentration range 0.01 to 500 μM). The cells were washed once and then incubated in drug free medium for 6 days. At the end of the incubation cell growth was determined by the SRB assay, which quantifies viable cells by measuring their total cellular protein content. […] Similar studies were conducted against the growth of PC3 (human prostate cancer cells) and MCF-7 (human breast cancer cells).

[5] = tested on: L1210 leukemia cells; experiment: MTT cytotoxicity on L1210 cells; assay type: cell-based, murine; conditions: 72 hr incubation
Protocol: (§1) The P815 and L1210 cell lines were obtained from American Type Tissue Culture Collection (ATCC). The cell lines were grown in Delbecco's Modified Eagle Medium (DMEM, Atlanta Biologicals) supplemented with 10% fetal bovine serum, Hepes Buffer (2 mM, Mediatech Cellgro, 25-060-Cl), L-Glutamine (2 mM, Mediatech Cellgro), and penicillin/streptomycin (50,000 units penicillin, 50,000 […], Atlanta Biologicals). Cells were maintained at 37° C. in a 5% humidified CO2 atmosphere. Cultured cells were counted using a hemocytometer and resuspended in fresh DMEM at a concentration of 8×10^5 cells/mL. This cell suspension (100 μL) was added to 96 well flat -bottom cell culture plates. At this concentration, 80,000 cells were seeded in each well. Drug solutions (dissolved in DMSO and diluted in DMEM) were added to each well (5 μL/well) resulting in final concentrations ranging from 1×10^−4 to 1×10^−12 M. Quadruplicate wells were prepared for each drug concentration. The plates were incubated for 72 hr at 37° C. in a 5% CO2 atmosphere. MTT (3-(4,5-dimethylthiazol-2-yl)-2,5-diphenyl tetrazolium bromide) was dissolved in PBS (5 mg/ml). After the indicated cell incubation period, 10 μL of this stock MTT solution was added to each well and the plates were further incubated for 4 h at 37° C. in a 5% CO2 atmosphere. […] The contents of the well were mixed thoroughly by pipetting the cell suspension up and down and the plates were allowed to sit at room temperature for 15 min in order to allow for full development of the purple color. The plates were read on a Dynatech Plate Reader, utilizing Dynex Revelation 3.2 software, with a test wavelenth of 570 nm and a reference wavelength of 630 nm.

[6] = tested on: P815 mastocytoma cells; experiment: MTT cytotoxicity on P815 cells; assay type: cell-based, murine; conditions: 72 hr incubation
Protocol: as §1

[7] = tested on: plasmid pBR322 DNA; experiment: Taq polymerase stop assay; assay type: biochemical
[8] = tested on: panel of 60 human cancer cell lines; experiment: NCI in-vitro cytotoxicity screen, whole panel; assay type: cell-based; conditions: for range of activity: 48 hour exposure
[9] = mice; therapeutic doses; cited from earlier work
[10] = tested on: mouse L1210 leukemia cells; conditions: cited from earlier work
[11] = tested on: human tumor cells in hollow fibers; experiment: NCI hollow fiber assay, all cell lines; assay type: in vivo, mice
[12] = Homo sapiens, K562, 1 h, read-out: IC50 1 hour exposure
[13] = 0.1 mM compound, 40° C. for 40 h

CCN(CC)c1ccc2cc(C(=O)Nc3ccc4[nH]c(C(=O)N5C[C@@H](CCl)c6c5cc(OC(=O)Nc5ccccc5)c5[nH]cc(C)c65)cc4c3)oc2c1 [carzelesin]
ILS [1]: 150±8% | survival [1]: 2/6

CCCC(=O)Nc1cc(C(=O)Nc2cc(C(=O)Nc3ccc(O)cc3CCCl)n(C)c2)n(C)c1 [Compound 6, N-(2-(2-Chloroethyl)-4-hydroxyphenyl)-1-methyl-4-(1-methyl-4-butanamidopyrrole-2-carboxamido)pyrrole-2-carboxamide]
IC50 [2, 12]: > 30 µM

COc1cc2cc(C(=O)Nc3cc(N)ccc3CCCl)[nH]c2c(OC)c1OC [Compound 24, 4-(2-Chloroethyl)-3-(5,6,7-trimethoxyindole-2-carboxamido)aniline]
Form II DNA (%) [3, 13]: quantitative

CCCC(=O)Nc1cc(C(=O)Nc2cc(C(=O)Nc3ccc(O)cc3CCBr)n(C)c2)n(C)c1 [Compound 7, N-(2-(2-Bromoethyl)-4-hydroxyphenyl)-1-methyl-4-(1-methyl-4-butanamidopyrrole-2-carboxamido)pyrrole-2-carboxamide]
IC50 ([4]; Homo sapiens, 1 h, read-out: IC50 LS174T 1 hour exposure): 237 µM | activity in words ([4]; one hour exposure): not active | IC50 [2, 12]: > 100 µM | IC50 ([2]; Homo sapiens, K562, 72 h, read-out: IC50 continuous exposure (3 days)): 3.64 ± 0.05 µM | activity in words ([2]; K562, one hour exposure): not active

N-[(N-(4-Aminobutyl)-N-methylpyrrole-4-(N-methylimidazole-2-carboxamido)-2-carboxamido)]-N-[5-(4-(2-chloroethyl)phenol-3-yl)benzofuran-2-carboxamido)]glutarodiamide hydrochloride [Compound 18]
Form II DNA (%) [3]: quantitative | IC50 [5]: > 100 µM | IC50 [6]: > 100 µM | additional unique alkylation site [7]: 3′-GCAACG-5′ | alkylation of the 5′-AAAAA sequence [7]: did not alkylate | alkylation selectivity (sequence) [7]: 3′-ATTT-5′

Cl.Cn1cc(NC(=O)c2cccn2C)cc1C(=O)NCCCCNC(=O)CCCC(=O)Nc1ccc2oc(C(=O)Nc3cc(O)ccc3CCCl)cc2c1 [Compound 17]
Form II DNA (%) [3]: quantitative | alkylation of the 5′-AAAAA sequence [7]: did not alkylate | alkylation selectivity (sequence) [7]: 3′-ATTT-5′

COc1cc2cc(C(=O)Nc3cc(O)c4ccccc4c3CCCl)[nH]c2c(OC)c1OC [Compound 26, 4-(2-Chloroethyl)-3-(5,6,7-trimethoxyindole-2-carboxamido)-1-naphthol]
Form I DNA (%) [3, 13]: 0% | Form II DNA (%) [3, 13]: quantitative | range of activity [8]: micromolar range | activity against leukemia cells [8]: none of these compounds showed much activity | activity against melanoma cells [8]: active | activity against solid tumors cells [8]: strong activity | covalent DNA AT sequence selectivity [7]: preferentially at a five consecutive A(865)AAAA sequence

COC(=O)c1cc2c([nH]1)C(=O)C=C1N(C(=O)c3cc4cc(OC)c(OC)c(OC)c4[nH]3)CC3CC123 (single isomer, unassigned; (+)) [DUMSA, (+)-duocarmycin SA]
delayed lethality / delayed toxicity [9]: devoid of this toxic side effect | IC50 values (range in words) ([10]; growth of mouse L1210 leukemia cells in culture): pM range

Cc1c[nH]c2c(O)cc3c(c12)[C@H](CCl)CN3C(=O)c1cc2cc(NC(=O)Nc3ccc4[nH]c(C(=O)N5C[C@@H](CCl)c6c5cc(O)c5[nH]cc(C)c65)cc4c3)ccc2[nH]1 [Bizelesin]
IC50 [10]: 1 pM | potency relative to (+)-CC1065 [10]: 20-30 times

Cl.Cn1cc(NC(=O)c2cccn2C)cc1C(=O)NCCCCNC(=O)CCCC(=O)Nc1ccc2oc(C(=O)Nc3cc(O)ccc3CCCl)cc2c1 [Compound 17, N-[(N-(4-Aminobutyl)-N-methylpyrrole-4-(N-methylpyrrole-2-carboxamido)-2-carboxamido)]-N-[5-(4-(2-chloroethyl)phenol-3-yl)benzofuran-2-carboxamido)]glutarodiamide hydrochloride]
IC50 [5]: 64 µM | IC50 [6]: 61 µM

4-(2-Bromoethyl)-3-[5-(5-benzofuran-2-carboxamido)indole-2-carboxamido]phenol [Compound 2]
IC50 ([2]; K562 cells, continuous exposure (3 days), read-out: IC50 continuous exposure (3 days)): 1.6 ± 0.9 µM | IC50 ([2]; read-out: IC50 1 hour exposure, K562 cells, 1 hour exposure): 23.8 ± 9.7 µM | sequence selectivity [7]: stronger sequence selectivity than 27 | efficiency in alkylating DNA ([7]; compared with chloro-compound 1): less efficient in alkylating DNA

COc1cc2cc(C(=O)Nc3cc(N)c4ccccc4c3CCCl)[nH]c2c(OC)c1OC [Compound 25, 4-(2-chloroethyl)-3-(5,6,7-trimethoxyindole-2-carboxamido)-1-naphthylamine]
Form II DNA (%) [3, 13]: quantitative | range of activity [8]: micromolar range | activity against leukemia cells [8]: none of these compounds showed much activity | activity against melanoma cells [8]: active | activity against solid tumors cells [8]: strong activity | cell kill [11]: cell kill observed | composite score ([11]; IP+SC): 54 | IP score ([11]; intraperitoneal fibers): 46 | SC score ([11]; subcutaneous fibers): 8 | covalent DNA AT sequence selectivity [7]: preferentially at a five consecutive A(865)AAAA sequence

COc1cc2cc(C(=O)N3CC(CCl)c4c3cc(O)c3ccccc43)[nH]c2c(OC)c1OC (stereo not shown) [Compound 28, seco-CBI-trimethoxyindole, reference compound]
covalent DNA AT sequence selectivity [7]: preferentially at a five consecutive A(865)AAAA sequence

N-[(N-(4-Aminobutyl)-N-methylimidazole-4-(N-methylpyrrole-2-carboxamido)-2-carboxamido)]-N-[5-(4-(2-chloroethyl)phenol-3-yl)benzofuran-2-carboxamido)]glutarodiamide hydrochloride [Compound 19]
Form II DNA (%) [3]: quantitative | IC50 [5]: > 100 µM | IC50 [6]: > 100 µM | additional unique alkylation site [7]: 3′-(G)CA-5′ | alkylation of the 5′-AAAAA sequence [7]: did not alkylate | alkylation selectivity (sequence) [7]: 3′-ATTT-5′
